Counter-ions that a name gives are not always drawn.
Assays:
[1] = system: SMN2 minigene mRNA (SMN2-A minigene) in HEK293H cells; assay: SMN2 minigene mRNA splicing RT-qPCR assay in cultured cells; type: cell-based, human; conditions: Homo sapiens, HEK293-H; concentration increasing full length SMN2 mRNA 1.5-fold relative to vehicle-treated cells; HEK293H cells with SMN2-A minigene, 24 hours, 7-point concentration data; read-out: EC1.5x for production of full length SMN2 mRNA
How it was run: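 Potency reflects the concentration that lifts full-length SMN2 minigene mRNA 1.5-fold above vehicle in stably transfected HEK293H cells after 24 h of treatment. Transcript abundance came from RT-qPCR as (1+E)^−Ct, normalized to GAPDH; endogenous SMN1/SMN2 are not detected.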

[2] = system: Smn protein in SMA patient fibroblast cells (GM03813); assay: Smn protein assay in cultured cells (SMN HTRF); type: cell-based, human; conditions: SMA patient fibroblast cells, 48 hours; for EC1.5x for Smn protein expression: 7-point concentration curve, SMN HTRF, concentration producing 1.5 times Smn protein vs DMSO vehicle control; for maximum fold (Fold) increase of Smn protein: 7-point concentration data, fold relative to vehicle control
How it was run: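 Smn protein abundance in treated SMA fibroblasts was measured by HTRF after 48 h compound exposure. The reported EC1.5× is the concentration producing 1.5 times vehicle Smn levels.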

Row | melting point [°C] | SMILES | EC (1.5-fold increase) [1] [µM] | EC1.5x for Smn protein expression [2] | maximum fold (Fold) increase of Smn protein [2]
1 | 188 to 192 | COc1ccc(-c2cc(=O)n3cc(N4CCC(N(C)C)CC4)ccc3c2)cc1F (as salt: acetate) [Compound 203, 7-[4-(dimethylamino)piperidin-1-yl]-2-(3-fluoro-4-methoxyphenyl)-4H-quinolizin-4-one] |  |  | 
2 |  | CCN1CCN(c2ccc3nc(-c4cc(C)c5nc(C)cn5c4)cc(=O)n3c2)CC1 [Compound 819, 2-(2,8-dimethylimidazo[1,2-a]pyridin-6-yl)-7-(4-ethylpiperazin-1-yl)-4H-pyrido[1,2-a]pyrimidin-4-one] | < 0.1 | **** (an EC1.5x≤0.3 μM is indicated by four stars (****)) | ***** (a fold increase >1.65 is indicated by five stars (*****))
3 |  | Cc1cn2cc(-c3cc(=O)n4cc(N5CCN6CCC[C@H]6C5)ccc4n3)cc(C)c2n1 [Compound 820, 2-(2,8-dimethylimidazo[1,2-a]pyridin-6-yl)-7-[(8aS)-hexahydropyrrolo[1,2-a]pyrazin-2(1H)-yl]-4H-pyrido[1,2-a]pyrimidin-4-one] | < 0.1 | **** (an EC1.5x≤0.3 μM is indicated by four stars (****)) | ***** (a fold increase >1.65 is indicated by five stars (*****))
4 |  | Cc1cn2cc(-c3cc(=O)n4cc(N5CCN6CCCC6(C)C5)ccc4n3)cc(C)c2n1 (centres unmarked) [Compound 821, 2-(2,8-dimethylimidazo[1,2-a]pyridin-6-yl)-7-(8a-methylhexahydropyrrolo[1,2-a]pyrazin-2(1H)-yl)-4H-pyrido[1,2-a]pyrimidin-4-one] | < 0.1 | **** (an EC1.5x≤0.3 μM is indicated by four stars (****)) | ***** (a fold increase >1.65 is indicated by five stars (*****))
5 |  | CCc1nc(C)cn2nc(-c3cc(=O)n4cc(N5CC[C@@H](N(C)C)C5)cc(C)c4n3)cc12 [Compound 822, 7-[(3R)-3-(dimethylamino)pyrrolidin-1-yl]-2-(4-ethyl-6-methylpyrazolo[1,5-a]pyrazin-2-yl)-9-methyl-4H-pyrido[1,2-a]pyrimidin-4-one] | 0.1 to 0.3 | *** (an EC1.5× between >0.3 μM and ≤1 μM is indicated by three stars (***)) | **** (a fold increase between >1.5 and ≤1.65 is indicated by four stars (****))
6 |  | CCc1nc(C)cn2nc(-c3cc(=O)n4cc(NCCN5CCOCC5)ccc4n3)cc12 [Compound 823, 2-(4-ethyl-6-methylpyrazolo[1,5-a]pyrazin-2-yl)-7-{[2-(morpholin-4-yl)ethyl]amino}-4H-pyrido[1,2-a]pyrimidin-4-one] | 3 to 30 |  | ** (a fold increase between >1.2 and ≤1.35 is indicated by two stars (**))
7 |  | CCc1nc(C)cn2nc(-c3cc(=O)n4cc(NCCN(C)C)ccc4n3)cc12 [Compound 824, 7-{[2-(dimethylamino)ethyl]amino}-2-(4-ethyl-6-methylpyrazolo[1,5-a]pyrazin-2-yl)-4H-pyrido[1,2-a]pyrimidin-4-one] | 0.3 to 1 | * (An EC1.5× for Smn protein expression between >3 μM and ≤10 μM is indicated by one star (*)) | **** (a fold increase between >1.5 and ≤1.65 is indicated by four stars (****))
8 |  | CCc1nc(C)cn2nc(-c3cc(=O)n4cc(N(C)CCN(C)C)ccc4n3)cc12 [Compound 825, 7-{[2-(dimethylamino)ethyl](methyl)amino}-2-(4-ethyl-6-methylpyrazolo[1,5-a]pyrazin-2-yl)-4H-pyrido[1,2-a]pyrimidin-4-one] | 0.3 to 1 | ** (an EC1.5× between >1 μM and ≤3 μM is indicated by two stars (**)) | ***** (a fold increase >1.65 is indicated by five stars (*****))
9 |  | CCc1nc(C)cn2nc(-c3cc(=O)n4cc(N(C)CCNC)ccc4n3)cc12 [Compound 826, 2-(4-ethyl-6-methylpyrazolo[1,5-a]pyrazin-2-yl)-7-{methyl[2-(methylamino)ethyl]amino}-4H-pyrido[1,2-a]pyrimidin-4-one] | 0.1 to 0.3 | ** (an EC1.5× between >1 μM and ≤3 μM is indicated by two stars (**)) | ***** (a fold increase >1.65 is indicated by five stars (*****))
10 |  | Cc1cn2cc(-c3cc(=O)n4cc(N5CC[C@@H](N(C)C)C5)ccc4n3)cc(C)c2n1 [Compound 827, 7-[(3R)-3-(dimethylamino)pyrrolidin-1-yl]-2-(2,8-dimethylimidazo[1,2-a]pyridin-6-yl)-4H-pyrido[1,2-a]pyrimidin-4-one] | < 0.1 | *** (an EC1.5× between >0.3 μM and ≤1 μM is indicated by three stars (***)) | ***** (a fold increase >1.65 is indicated by five stars (*****))
11 |  | Cc1cn2cc(-c3cc(=O)n4cc(N5CC[C@H](N(C)C)C5)ccc4n3)cc(C)c2n1 [Compound 828, 7-[(3S)-3-(dimethylamino)pyrrolidin-1-yl]-2-(2,8-dimethylimidazo[1,2-a]pyridin-6-yl)-4H-pyrido[1,2-a]pyrimidin-4-one] | < 0.1 | **** (an EC1.5x≤0.3 μM is indicated by four stars (****)) | ***** (a fold increase >1.65 is indicated by five stars (*****))
12 |  | CCc1nc(C)cn2nc(-c3cc(=O)n4cc(OCCN(C)C)cc(C)c4n3)cc12 [Compound 829, 7-[2-(dimethylamino)ethoxy]-2-(4-ethyl-6-methylpyrazolo[1,5-a]pyrazin-2-yl)-9-methyl-4H-pyrido[1,2-a]pyrimidin-4-one] | 0.1 to 0.3 | ** (an EC1.5× between >1 μM and ≤3 μM is indicated by two stars (**)) | ***** (a fold increase >1.65 is indicated by five stars (*****))
13 |  | CCc1nc(C)cn2nc(-c3cc(=O)n4cc(OCCN(C)C)ccc4n3)cc12 [Compound 830, 7-[2-(dimethylamino)ethoxy]-2-(4-ethyl-6-methylpyrazolo[1,5-a]pyrazin-2-yl)-4H-pyrido[1,2-a]pyrimidin-4-one] | < 0.1 | *** (an EC1.5× between >0.3 μM and ≤1 μM is indicated by three stars (***)) | ***** (a fold increase >1.65 is indicated by five stars (*****))
14 |  | CCc1nc(C)cn2nc(-c3cc(=O)n4cc(OCC5CCNCC5)ccc4n3)cc12 [Compound 831, 2-(4-ethyl-6-methylpyrazolo[1,5-a]pyrazin-2-yl)-7-(piperidin-4-ylmethoxy)-4H-pyrido[1,2-a]pyrimidin-4-one] | 0.1 to 0.3 | ** (an EC1.5× between >1 μM and ≤3 μM is indicated by two stars (**)) | **** (a fold increase between >1.5 and ≤1.65 is indicated by four stars (****))
15 |  | CCc1nc(C)cn2nc(-c3cc(=O)n4cc(OCCN5CCCCC5)ccc4n3)cc12 [Compound 832, 2-(4-ethyl-6-methylpyrazolo[1,5-a]pyrazin-2-yl)-7-[2-(piperidin-1-yl)ethoxy]-4H-pyrido[1,2-a]pyrimidin-4-one] | 0.1 to 0.3 | *** (an EC1.5× between >0.3 μM and ≤1 μM is indicated by three stars (***)) | ***** (a fold increase >1.65 is indicated by five stars (*****))
16 |  | CCc1nc(C)cn2nc(-c3cc(=O)n4cc(OCCCN5CCOCC5)ccc4n3)cc12 [Compound 833, 2-(4-ethyl-6-methylpyrazolo[1,5-a]pyrazin-2-yl)-7-[3-(morpholin-4-yl)propoxy]-4H-pyrido[1,2-a]pyrimidin-4-one] | < 0.1 | ** (an EC1.5× between >1 μM and ≤3 μM is indicated by two stars (**)) | ***** (a fold increase >1.65 is indicated by five stars (*****))
17 |  | CCc1nc(C)cn2nc(-c3cc(=O)n4cc(OCCCN(C)C)ccc4n3)cc12 [Compound 834, 7-[3-(dimethylamino)propoxy]-2-(4-ethyl-6-methylpyrazolo[1,5-a]pyrazin-2-yl)-4H-pyrido[1,2-a]pyrimidin-4-one] | < 0.1 | **** (an EC1.5x≤0.3 μM is indicated by four stars (****)) | ***** (a fold increase >1.65 is indicated by five stars (*****))
18 |  | Cc1cn2nc(-c3cc(=O)n4cc(N5C[C@H]6CN(C)C[C@H]6C5)ccc4n3)cc2c(C)n1 [Compound 835, 2-(4,6-dimethylpyrazolo[1,5-a]pyrazin-2-yl)-7-[(3aR,6aS)-5-methylhexahydropyrrolo[3,4-c]pyrrol-2(1H)-yl]-4H-pyrido[1,2-a]pyrimidin-4-one] | < 0.1 | **** (an EC1.5x≤0.3 μM is indicated by four stars (****)) | ***** (a fold increase >1.65 is indicated by five stars (*****))
19 |  | COc1ccc(-c2cc(=O)n3cc(C4=CCNCC4)cnc3n2)cc1OC [Cpd 353, 2-(3,4-dimethoxyphenyl)-7-(1,2,3,6-tetrahydropyridin-4-yl)-4H-pyrimido[1,2-a]pyrimidin-4-one] | 0.1 to 0.3 |  | ** (a fold increase between >1.2 and ≤1.35 is indicated by two stars (**))
